Source: patent US7977366B2, “Treating an inflammatory disorder or inhibiting respiratory burst in adherent neutrophils with chemical inhibitors of neutrophil activation” (Cornell Research Foundation, Inc., priority 2003, dated 2011)

Test system: human neutrophils
Test: TNF-triggered H2O2 release (respiratory burst) by adherent human neutrophils
Format: cell-based
Method: Contaminating erythrocytes were lysed by hypotonic shock for 45 seconds with 0.2% saline.
Briefly, 15,000 compounds were screened to identify specific inhibitors of TNF-triggered H2O2 release in human neutrophils. H2O2 release was measured as above except a few modifications to adapt to high throughput screening. […] Percent inhibition by each compound was calculated using the formula: […]
Briefly, 96-well flat-bottomed plates (Primaria, Falcon) were coated with 50 μl/well of FBS in 5% CO2 at 37° C. for at least 1 h and washed three times with 0.9% saline. Neutrophils (1.5×10^4) were added to triplicate wells containing 100 μl of reaction mixture (2.4 nm scopoletin, 0.5 μg horseradish peroxidase (HRP), and 1 mM NaN3) and stimulated with either buffer control, TNF (PreproTech, London, UK) or phorbol myristate acetate (PMA), each at 100 ng/ml. […] The supernatant from the H2O2 release assay with 1.5×10^4 neutrophils was used to measure degranulation using lactoferrin (LF) or myeloperoxidase (MPO) ELISA kit (Oxis International, Inc., Portland, Oreg.). Spontaneous cell death from the same supernatant was measured using Cytotoxicity Detection Kit (Roche Molecular Biochemicals, Nutley, N.J.). The total cell content of LF, MPO, and lactate dehydrogenase (LDH) was determined after lysing cells with 1% Triton X100. LDH is a cytosolic enzyme whose release indicates cell lysis, such that high release of LF or MPO in the face of low release of LDH is taken as a measure of degranulation.

IC50 (Homo sapiens, Neutrophil, 1.5 h, TNF 100 ng/ml, H2O2 release at 90 min, read-out: IC50, TNF triggered H2O2 release): 22 nM
SMILES: CC1=NN(c2ccccc2)C(=O)/C1=C\Nc1cccc2ccc(C)nc12 [Comp II′]
Concentration that consistently yielded over 95% inhibition on TNF triggered RB (empirically decided for each compound): 1 µM
